Measured values as given in ChEMBL document CHEMBL5543140 (J Med Chem, 2024).
Active and inactive are the calls of the source. The rule behind the calls is not given here.

How the values were obtained:
[1] = Ex vivo binding in C57BL/6J mouse brain frontal cortex assessed as inhibition of [3H]Cimbi-36 binding at 1 mg/kg, sc measured after 220 mins by liquid scintillation counting analysis (reference value: 0%); format: functional; settings: 3.667 h
[2] = Drug metabolism in rat hepatocytes assessed as formation of sulfoxide with N-acetylation/0-glucuronidations metabolites at 10 uM by HRAMS analysis; format: ADME, cell-based, Hepatocyte
[3] = Ex vivo binding in C57BL/6J mouse brain frontal cortex assessed as specific binding [3H]Cimbi-36 at 1 mg/kg, sc measured after 10 mins by liquid scintillation counting analysis (reference value: 1092 +/- 53); format: functional
[4] = test system: Mus musculus; assay: Locomotor activity in C57BL/6J mouse assessed as distance traveled at 3 mg/kg, po measured for 15 to 25 mins (reference value: 1710 +/- 120 cm) by Ethovision tracking system; format: functional; settings: time 15-25 min
[5] = Metabolic stability in rat liver microsomes assessed as half life at 1 uM incubated for 120 mins in presence of NADPH; format: ADME, Microsome
[6] = test system: Mus musculus; assay: Psychedelic effect in C57BL/6J mouse assessed as head-twitch responses reversibility by visual observation at 3 mg/kg, sc once a day for 3 days following treatment free for 48 hrs followed by redosed at 3 mg/kg, sc; format: functional, organism-based; settings: time 3.0 day
[7] = test system: Hippocampus; assay: Induction of neuroplasticity in C57BL/6J mouse assessed as increase in Homer 1 mRNA expression in brain hippocampus at 3 mg/kg, sc single dose by RT-PCR analysis; format: functional, organism-based
[8] = target: Alpha-2C adrenergic receptor (Homo sapiens, UniProt P18825); assay: biochemical
[9] = test system: Hippocampus; assay: Induction of neuroplasticity in C57BL/6J mouse assessed as increase in mTOR mRNA expression in brain hippocampus at 3 mg/kg, sc single dose by RT-PCR analysis; format: functional, organism-based
[10] = target: 5-hydroxytryptamine receptor 1A (Homo sapiens, UniProt P08908); assay: Displacement of [3H]-8-OH-DPAT from 5-HT1A receptor (unknown origin) assessed as inhibition binding
[11] = MRTlast in Wistar rat brain at 5 mg/kg, po measured upto 48 hrs; format: ADME, organism-based
[12] = test system: Hippocampus; assay: Induction of neuroplasticity in C57BL/6J mouse assessed as increase in c-Fos mRNA expression in brain hippocampus at 3 mg/kg, sc single dose by RT-PCR analysis; format: functional, organism-based
[13] = Half life in Wistar rat brain at 1 mg/kg, iv measured upto 48 hrs; format: ADME, organism-based
[14] = Metabolic stability in dog liver microsomes assessed as half life at 1 uM incubated for 120 mins in presence of NADPH; format: ADME, Canis lupus familiaris, Microsome
[15] = AUCinf in Wistar rat plasma at 1 mg/kg, iv measured upto 48 hrs; format: ADME, organism-based
[16] = target: 5-hydroxytryptamine receptor 2B (Homo sapiens, UniProt P41595); assay: Agonist activity at human 5-HT2B receptor expressed in CHO cells assessed as IP2 production measured after 30 mins incubation by HTRF assay; format: functional, cell-based
[17] = Brain to plasma ratio in Wistar rat at 1 mg/kg, iv measured upto 48 hrs; format: ADME, organism-based; settings: read-out: BPR
[18] = Half life in Wistar rat plasma at 1 mg/kg, iv measured upto 48 hrs; format: ADME, organism-based
[19] = target: T1, 5-hydroxytryptamine receptor 2A (Homo sapiens, UniProt P28223); assay: Agonist activity at human 5-HT2A receptor expressed in HEK293 cells assessed as IP2 production measured after 30 mins incubation by HTRF assay; format: functional, cell-based; settings: read-out: EC50
[20] = Cmax in Wistar rat plasma at 5 mg/kg, po measured upto 48 hrs; format: ADME, organism-based
[21] = test system: Mus musculus; assay: Psychedelic effect in C57BL/6J mouse assessed as induction of 5-HT2A receptor dependent maximal head-twitch responses by visual observation at 1 to 3 mg/kg, sc at 40 mins post- administration measured upto 360 mins; format: functional, organism-based; settings: dose 1-3 mg/kg
[22] = Initial plasma concentration in male Sprague-Dawley rat at 1 mg/kg, iv measured upto 8 hrs by LC-MS/MS analysis; format: ADME, organism-based
[23] = test system: Hippocampus; assay: Induction of neuroplasticity in C57BL/6J mouse assessed as increase in NPTN mRNA expression in brain hippocampus at 3 mg/kg, sc single dose by RT-PCR analysis; format: functional, organism-based
[24] = target: Alpha-2B adrenergic receptor (Homo sapiens, UniProt P18089); assay: biochemical; format: cell-based, CHO-K1
[25] = target: Muscarinic acetylcholine receptor M1 (Homo sapiens) (UniProt P11229); assay: Displacement of [3H]-Pirenzepine from human muscarinic M1 expressed in CHO-K1 cells membrane at 10 uM incubated for 60 mins by microbeta liquid scintillation counting analysis; format: cell membranes; settings: Cell membrane
[26] = Ex vivo binding in C57BL/6J mouse brain frontal cortex assessed as specific binding [3H]Cimbi-36 at 1 mg/kg, sc measured after 220 mins by liquid scintillation counting analysis (reference value: 1092 +/- 53); format: functional; settings: 3.667 h
[27] = test system: Hippocampus; assay: Induction of neuroplasticity in C57BL/6J mouse assessed as increase in IGF1 mRNA expression in brain hippocampus at 0.3 mg/kg, sc single dose by RT-PCR analysis; format: functional, organism-based
[28] = Tmax in beagle dog at 2 mg/kg, po measured upto 24 hrs; format: ADME, organism-based, Canis lupus familiaris; settings: in vivo
[29] = test system: Mus musculus; assay: Psychedelic effect in C57BL/6J mouse assessed as maximal number of 5-HT2A receptor dependent head-twitch responses by visual observation at 3 mg/kg, sc (reference value: 3); format: functional
[30] = test system: Mus musculus; assay: Locomotor activity in C57BL/6J mouse assessed as distance traveled at 3 mg/kg, sc measured for 15 to 25 mins (reference value: 1710 +/- 120 cm) by Ethovision tracking system; format: functional; settings: time 15-25 min
[31] = target: T2, 5-hydroxytryptamine receptor 2C (Homo sapiens, UniProt P28335); assay: Displacement of [3H]LSD from human 5-HT2C receptor expressed in HEK293 cell membrane incubated for 90 mins by microbeta liquid scintillation counting method; format: cell membranes
T2 sequence (P28335 whole entry): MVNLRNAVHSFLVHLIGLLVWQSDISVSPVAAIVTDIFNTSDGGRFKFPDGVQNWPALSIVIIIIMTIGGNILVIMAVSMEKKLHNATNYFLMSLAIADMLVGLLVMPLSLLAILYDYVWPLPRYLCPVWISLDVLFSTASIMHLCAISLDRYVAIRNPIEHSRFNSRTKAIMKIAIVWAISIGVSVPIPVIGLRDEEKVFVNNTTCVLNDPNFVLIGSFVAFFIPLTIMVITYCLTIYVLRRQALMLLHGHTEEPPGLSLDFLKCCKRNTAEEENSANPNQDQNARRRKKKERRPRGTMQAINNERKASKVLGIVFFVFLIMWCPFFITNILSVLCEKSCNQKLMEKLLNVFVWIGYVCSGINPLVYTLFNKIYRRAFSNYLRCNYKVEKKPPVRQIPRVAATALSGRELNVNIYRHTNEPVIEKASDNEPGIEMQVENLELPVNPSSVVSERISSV

[32] = target: T1, 5-hydroxytryptamine receptor 2A; assay: Binding affinity to human [125I]LSD-labeled 5-HT2A receptor expressed in HEK293 cell membrane incubated for 60 mins; format: cell membranes

T1 sequence (P28223 whole entry): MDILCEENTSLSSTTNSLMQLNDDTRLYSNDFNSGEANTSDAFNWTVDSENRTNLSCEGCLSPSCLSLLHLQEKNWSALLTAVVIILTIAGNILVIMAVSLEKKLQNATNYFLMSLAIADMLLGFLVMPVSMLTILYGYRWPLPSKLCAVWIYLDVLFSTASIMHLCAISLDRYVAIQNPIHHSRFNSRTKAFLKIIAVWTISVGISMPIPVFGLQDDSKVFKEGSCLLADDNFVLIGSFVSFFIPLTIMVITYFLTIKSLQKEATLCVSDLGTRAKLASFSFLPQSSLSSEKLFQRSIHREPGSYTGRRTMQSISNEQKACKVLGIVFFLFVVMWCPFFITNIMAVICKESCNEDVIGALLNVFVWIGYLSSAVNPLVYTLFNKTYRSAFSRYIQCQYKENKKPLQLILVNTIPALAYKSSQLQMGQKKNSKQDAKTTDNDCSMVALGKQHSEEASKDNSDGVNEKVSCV
Chain of Alpha-2B adrenergic receptor (P18089 whole entry): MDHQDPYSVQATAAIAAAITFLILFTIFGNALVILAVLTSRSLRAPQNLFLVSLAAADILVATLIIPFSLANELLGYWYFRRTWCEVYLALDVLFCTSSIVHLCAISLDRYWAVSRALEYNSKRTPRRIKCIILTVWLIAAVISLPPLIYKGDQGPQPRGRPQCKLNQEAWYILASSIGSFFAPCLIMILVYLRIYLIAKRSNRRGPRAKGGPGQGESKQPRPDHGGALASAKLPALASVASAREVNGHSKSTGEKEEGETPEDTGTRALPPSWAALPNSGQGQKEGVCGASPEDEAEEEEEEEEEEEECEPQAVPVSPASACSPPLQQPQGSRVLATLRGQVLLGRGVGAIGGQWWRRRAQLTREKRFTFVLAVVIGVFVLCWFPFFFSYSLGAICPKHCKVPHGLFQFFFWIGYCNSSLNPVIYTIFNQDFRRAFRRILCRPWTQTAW
Chain of 5-hydroxytryptamine receptor 2B (P41595 whole entry): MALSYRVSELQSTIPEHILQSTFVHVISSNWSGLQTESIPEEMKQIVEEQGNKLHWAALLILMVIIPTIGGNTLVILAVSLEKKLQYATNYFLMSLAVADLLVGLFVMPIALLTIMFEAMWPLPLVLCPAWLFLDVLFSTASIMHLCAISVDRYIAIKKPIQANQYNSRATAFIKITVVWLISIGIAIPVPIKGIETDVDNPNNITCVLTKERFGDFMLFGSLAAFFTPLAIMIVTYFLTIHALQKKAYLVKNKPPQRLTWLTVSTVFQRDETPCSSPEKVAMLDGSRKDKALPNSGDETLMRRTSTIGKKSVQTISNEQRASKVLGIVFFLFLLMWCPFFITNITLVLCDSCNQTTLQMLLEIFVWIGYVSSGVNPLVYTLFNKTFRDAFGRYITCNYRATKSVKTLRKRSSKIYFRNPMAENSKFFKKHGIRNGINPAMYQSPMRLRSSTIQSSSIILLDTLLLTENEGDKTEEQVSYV
Chain of Alpha-2C adrenergic receptor (P18825 whole entry): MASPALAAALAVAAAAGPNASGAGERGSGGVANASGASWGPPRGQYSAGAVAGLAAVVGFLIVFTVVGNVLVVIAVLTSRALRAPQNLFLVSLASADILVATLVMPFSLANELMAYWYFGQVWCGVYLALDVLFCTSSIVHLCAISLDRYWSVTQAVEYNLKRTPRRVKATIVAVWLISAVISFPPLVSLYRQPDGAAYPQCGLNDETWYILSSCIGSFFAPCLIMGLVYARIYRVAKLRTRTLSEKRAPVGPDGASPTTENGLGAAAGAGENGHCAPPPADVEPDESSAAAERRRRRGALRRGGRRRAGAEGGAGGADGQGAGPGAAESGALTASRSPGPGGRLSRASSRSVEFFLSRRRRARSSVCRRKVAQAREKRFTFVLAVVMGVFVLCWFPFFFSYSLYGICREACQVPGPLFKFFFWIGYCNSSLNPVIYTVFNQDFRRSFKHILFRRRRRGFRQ
Chain of 5-hydroxytryptamine receptor 1A (P08908 whole entry): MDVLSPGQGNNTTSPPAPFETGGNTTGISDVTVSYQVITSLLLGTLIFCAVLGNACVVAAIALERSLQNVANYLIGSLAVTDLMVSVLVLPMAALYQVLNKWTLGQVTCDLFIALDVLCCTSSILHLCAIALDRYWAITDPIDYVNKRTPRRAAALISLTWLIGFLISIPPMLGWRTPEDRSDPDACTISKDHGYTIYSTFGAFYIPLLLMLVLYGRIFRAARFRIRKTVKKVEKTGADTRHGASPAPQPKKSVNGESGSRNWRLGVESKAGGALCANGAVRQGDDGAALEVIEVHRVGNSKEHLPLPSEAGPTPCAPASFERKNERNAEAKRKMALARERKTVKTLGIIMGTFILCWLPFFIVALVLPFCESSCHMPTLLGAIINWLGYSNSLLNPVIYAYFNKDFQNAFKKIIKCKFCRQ
Chain of Muscarinic acetylcholine receptor M1 (Homo sapiens) (P11229 whole entry): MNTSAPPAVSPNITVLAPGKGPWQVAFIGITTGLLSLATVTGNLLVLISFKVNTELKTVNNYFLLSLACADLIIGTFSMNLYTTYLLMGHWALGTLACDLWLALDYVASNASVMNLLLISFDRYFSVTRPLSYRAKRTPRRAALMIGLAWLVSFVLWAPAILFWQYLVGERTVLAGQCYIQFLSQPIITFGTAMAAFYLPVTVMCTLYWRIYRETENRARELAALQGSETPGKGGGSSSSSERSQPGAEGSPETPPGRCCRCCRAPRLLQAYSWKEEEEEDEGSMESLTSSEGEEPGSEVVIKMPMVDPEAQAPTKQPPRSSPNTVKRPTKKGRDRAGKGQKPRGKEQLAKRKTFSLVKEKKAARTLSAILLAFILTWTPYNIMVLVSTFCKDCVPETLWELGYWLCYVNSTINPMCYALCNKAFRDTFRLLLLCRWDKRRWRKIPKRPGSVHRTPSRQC

COc1cc([Se]C(F)(F)F)c(OC)cc1CCN.Cl
inhibition in vivo at 1 mg/kg [1]: 27% | Drug metabolism [2]: Metabolite_Detected | Activity [3]: 993 | Activity [4]: 3008 cm | half-life at 1 µM [5]: 55 min | Activity [6]: Active | Activity [7]: inactive | Ki [8]: 108 nM | Activity [9]: inactive | Ki [10]: 32 nM | MRT last at 48 h [11]: 3.3 h | Activity [12]: inactive | half-life [13]: 146 min | half-life at 1 µM [14]: > 120 min | AUC(0-inf) [15]: 50.7 ng·h/mL | EC50 [16]: 88 nM | Kp at 48 h [17]: 64.3 | half-life [18]: 46.8 min | EC50 [19]: 3.6 nM | Cmax [20]: 18.6 ng/mL | Activity [21]: Active | C0 at 8 h [22]: 330 ng/mL | Activity [23]: inactive | Ki [24]: 1050 nM | inhibition [25]: 88% | Activity [26]: 796 | Activity [27]: inactive | Tmax [28]: 2 h | Activity [29]: 23 | Activity [30]: 2446 cm | Ki [31]: 95 nM | Ki [32]: 4.1 nM
